Data taken from publication PMC9494668 (ACS Omega, 2022).
Converted amounts (≈) assume the structure as drawn. Like-named read-outs stand apart in the source and are kept apart here.

Legend:
[1] = test system: Candida albicans, Candida glabrata, Candida krusei, and Candida tropicalis; conditions: cited from earlier work
[2] = test system: Candida albicans ATCC 10321; test: microbe, parasite or virus in culture; type: cell-based
[3] = test system: Escherichia coli ATCC 25922; test: Microtitre broth dilution MIC, Escherichia coli; type: cell-based; conditions: ATCC25922, read-out: MIC, EC
[4] = test system: MCF7 human breast cancer cell line; test: MTT cytotoxicity, MCF7; type: cell-based; conditions: MCF7, 48 h, read-out: Anticancer activity IC50, MCF7
[5] = test system: Pseudomonas aeruginosa ATCC 27853; test: Microtitre broth dilution MIC, Pseudomonas aeruginosa; type: cell-based; conditions: ATCC27853, read-out: MIC, PA
[6] = test system: Salmonella enterica ATCC 10428; test: Microtitre broth dilution MIC, Salmonella enterica; type: cell-based; conditions: ATCC10428, read-out: MIC, SE
[7] = test system: C26 colon carcinoma cell line; test: MTT cytotoxicity, C26; type: cell-based; conditions: 48 h, read-out: Anticancer activity IC50, C26
[8] = test system: H69PR human small cell lung cancer cell line; test: MTT cytotoxicity, H69PR; type: cell-based; conditions: 48 h, read-out: Anticancer activity IC50, H69PR
[9] = test system: Aspergillus niger ATCC 16404; test: microbe, parasite or virus in culture; type: cell-based
[10] = test system: HepG2 human hepatocyte carcinoma cell line; test: MTT cytotoxicity, HepG2; type: cell-based; conditions: HepG2, 48 h, read-out: Anticancer activity IC50, HepG2
[11] = test system: methicillin-resistant strains of Staphylococcus aureus ATCC 43300; test: Microtitre broth dilution MIC, MRSA; type: cell-based; conditions: ATCC43300|MRSA, read-out: MIC, MRSA
[12] = test system: Streptococcus faecalis ATCC 29212; test: Microtitre broth dilution MIC, Streptococcus faecalis; type: cell-based; conditions: Enterococcus faecalis, ATCC29212, read-out: MIC, SF
[13] = test system: methicillin-susceptible strains of Staphylococcus aureus ATCC 29213; test: Microtitre broth dilution MIC, MSSA; type: cell-based; conditions: ATCC29213|MSSA, read-out: MIC, MSSA
VEGFR-2 = VEGFR-2 (Homo sapiens, UniProt P35968); test: In vitro VEGFR-2 kinase inhibition assay; type: biochemical; conditions: for IC50: IC50 VEGFR-2 inhibitory activity, IC50 ± SEM; for inhibitory activity on VEGFR-2 relative to DHFR: times better on the VEGFR-2 receptor than the DHFR receptor
Sequence of VEGFR-2 (P35968 20-1356): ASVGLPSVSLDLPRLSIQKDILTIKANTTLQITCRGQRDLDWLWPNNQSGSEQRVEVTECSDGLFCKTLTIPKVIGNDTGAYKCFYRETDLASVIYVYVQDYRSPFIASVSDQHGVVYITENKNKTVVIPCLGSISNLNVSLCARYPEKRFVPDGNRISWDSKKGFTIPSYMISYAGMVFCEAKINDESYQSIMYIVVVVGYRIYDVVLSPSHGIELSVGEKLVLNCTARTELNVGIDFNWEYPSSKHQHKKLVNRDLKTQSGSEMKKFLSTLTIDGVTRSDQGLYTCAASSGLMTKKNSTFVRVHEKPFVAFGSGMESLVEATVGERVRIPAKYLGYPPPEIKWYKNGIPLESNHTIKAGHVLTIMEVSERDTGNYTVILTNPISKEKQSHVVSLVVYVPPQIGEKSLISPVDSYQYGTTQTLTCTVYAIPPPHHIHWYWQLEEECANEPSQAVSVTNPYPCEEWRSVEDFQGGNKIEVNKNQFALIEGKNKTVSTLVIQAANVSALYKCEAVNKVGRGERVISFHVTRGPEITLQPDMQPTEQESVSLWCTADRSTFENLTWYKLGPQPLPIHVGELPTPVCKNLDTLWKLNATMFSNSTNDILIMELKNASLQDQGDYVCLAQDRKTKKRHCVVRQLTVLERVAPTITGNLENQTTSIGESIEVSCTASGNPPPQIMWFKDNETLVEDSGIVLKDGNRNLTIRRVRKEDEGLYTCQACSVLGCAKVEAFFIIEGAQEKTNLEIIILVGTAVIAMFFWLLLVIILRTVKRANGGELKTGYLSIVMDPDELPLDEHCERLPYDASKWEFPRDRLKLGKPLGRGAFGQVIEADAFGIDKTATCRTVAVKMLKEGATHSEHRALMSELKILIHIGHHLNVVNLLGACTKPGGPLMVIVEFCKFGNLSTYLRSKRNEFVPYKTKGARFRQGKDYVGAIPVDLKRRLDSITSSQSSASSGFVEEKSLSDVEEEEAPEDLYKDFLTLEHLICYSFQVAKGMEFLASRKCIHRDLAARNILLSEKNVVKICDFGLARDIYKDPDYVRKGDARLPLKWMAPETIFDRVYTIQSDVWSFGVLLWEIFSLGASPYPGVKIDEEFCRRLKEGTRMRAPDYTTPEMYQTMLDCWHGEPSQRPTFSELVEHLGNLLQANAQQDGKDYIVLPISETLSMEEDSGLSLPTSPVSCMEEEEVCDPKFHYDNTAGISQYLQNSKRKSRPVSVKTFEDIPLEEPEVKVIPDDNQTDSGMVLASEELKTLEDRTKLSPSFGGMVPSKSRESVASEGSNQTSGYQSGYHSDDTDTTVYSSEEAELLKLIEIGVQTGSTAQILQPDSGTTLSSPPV

DHFR = target: T1, DHFR (Homo sapiens, UniProt P00374); test: In vitro dihydrofolate reductase inhibition assay; type: biochemical; conditions: IC50 DHFR inhibitory activity, IC50 ± SEM
T1 sequence (P00374 1-187): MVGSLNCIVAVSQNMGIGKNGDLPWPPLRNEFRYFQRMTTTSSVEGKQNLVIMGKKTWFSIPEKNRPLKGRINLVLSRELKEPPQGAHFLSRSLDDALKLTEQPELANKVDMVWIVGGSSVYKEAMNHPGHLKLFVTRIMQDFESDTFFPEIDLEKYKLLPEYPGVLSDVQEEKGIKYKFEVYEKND

[14] = test system: bacterial strains (EC, PA, SF, SE, MSSA, MRSA) and fungi (CA, AN); test: Microtitre broth dilution MIC, stated over several strains; type: cell-based
drug-resistant fungi = conditions: ref [17]; cited from earlier work

Structure (SMILES)	MIC ([2]; ATCC10321, read-out: MIC, CA) [µg/mL]	MIC [3] [µg/mL]	IC50 [4] [µM]	MIC [5] [µg/mL]	MIC [6] [µg/mL]	IC50 [7] [µM]	IC50 [8] [µM]	MIC ([9]; ATCC16404, read-out: MIC, AN) [µg/mL]	IC50 [10] [µM]	MIC [11] [µg/mL]	MIC [12] [µg/mL]	MIC [13] [µg/mL]	also measured
CN(C/C=C/c1ccccc1)Cc1cccc2ccccc12 [naftifine]	–	–	–	–	–	–	–	–	–	–	–	–	MIC50, Candida species [1]: 0.25 to 2.00 µg/mL
COc1cc(OC)c2cc(C(=O)NCc3ccc(C)cc3)cc(O)c2c1 [5a, 4-Hydroxy-6,8-dimethoxy-N-(4-methylbenzyl)-2-naphthamide]	128 (≈ 364 µM)	64 (≈ 182 µM)	10.3 ± 2.11	64 (≈ 182 µM)	64 (≈ 182 µM)	9.21 ± 2.3	34.2 ± 5.64	256 (≈ 729 µM)	13.6 ± 1.37	128 (≈ 364 µM)	64 (≈ 182 µM)	–	–
COc1ccc(CNC(=O)c2cc(O)c3cc(OC)cc(OC)c3c2)cc1 [6a, 4-Hydroxy-6,8-dimethoxy-N-(4-methoxybenzyl)-2-naphthamide]	–	64 (≈ 174 µM)	15.9 ± 1.28	64 (≈ 174 µM)	64 (≈ 174 µM)	14.4 ± 1.62	29.2 ± 2.65	–	17.4 ± 1.51	128 (≈ 348 µM)	64 (≈ 174 µM)	32 (≈ 87.1 µM)	MIC ([2]; ATCC10321, 72 h, read-out: MIC, CA): 256 µg/mL (≈ 697 µM); MIC ([9]; ATCC16404, 72 h, read-out: MIC, AN): 256 µg/mL (≈ 697 µM)
COc1cc(OC)c2c(O)cc(C(=O)NCc3ccc(Cl)cc3)cc2c1 [8b, N-(4-chlorobenzyl)-4-hydroxy-5,7-dimethoxy-2-naphthamide]	64 (≈ 172 µM)	16 (≈ 43 µM)	3.58 ± 1.06	64 (≈ 172 µM)	16 (≈ 43 µM)	2.97 ± 0.98	12.8 ± 2.83	256 (≈ 689 µM)	7.12 ± 1.25	16 (≈ 43 µM)	16 (≈ 43 µM)	8 (≈ 21.5 µM)	IC50 (VEGFR-2): 0.384 ± 0.047 µM; inhibitory activity on VEGFR-2 relative to DHFR (VEGFR-2): 15–20 times; IC50 (DHFR): 7.88 ± 0.442 µM; fold antibacterial activity relative to compound 5b ([14]; strains SF, SE, MSSA, and MRSA): more than 2 fold
COc1cc(OC)c2cc(C(=O)NCc3ccc(Br)cc3)cc(O)c2c1 [7a, N-(4-bromobenzyl)-4-hydroxy-6,8-dimethoxy-2-naphthamide]	128 (≈ 307 µM)	64 (≈ 154 µM)	19.8 ± 1.59	64 (≈ 154 µM)	64 (≈ 154 µM)	18.5 ± 1.73	23 ± 2.87	256 (≈ 615 µM)	16.7 ± 1.68	128 (≈ 307 µM)	64 (≈ 154 µM)	–	–
COc1cc(OC)c2c(O)cc(C(=O)NCc3ccc(Br)cc3)cc2c1 [7b, N-(4-bromobenzyl)-4-hydroxy-5,7-dimethoxy-2-naphthamide]	64 (≈ 154 µM)	64 (≈ 154 µM)	11.5 ± 1.61	64 (≈ 154 µM)	32 (≈ 76.9 µM)	9.83 ± 1.54	21.3 ± 3.04	256 (≈ 615 µM)	12.1 ± 1.09	64 (≈ 154 µM)	32 (≈ 76.9 µM)	32 (≈ 76.9 µM)	–
O=C(O)c1cn(C2CC2)c2cc(N3CCNCC3)c(F)cc2c1=O [Cipro, ciprofloxacin, reference compound]	–	16 (≈ 48.3 µM)	–	16 (≈ 48.3 µM)	8 (≈ 24.1 µM)	–	–	–	–	16 (≈ 48.3 µM)	8 (≈ 24.1 µM)	8 (≈ 24.1 µM)	–
COc1cc(OC)c2c(O)cc(C(=O)NCCCN3CCOCC3)cc2c1 [4b, 4-Hydroxy-5,7-dimethoxy-N-(3-morpholinopropyl)-2-naphthamide]	64 (≈ 171 µM)	128 (≈ 342 µM)	18.6 ± 1.84	128 (≈ 342 µM)	64 (≈ 171 µM)	25.1 ± 3.23	53.7 ± 3.55	256 (≈ 684 µM)	17.8 ± 2.46	256 (≈ 684 µM)	128 (≈ 342 µM)	64 (≈ 171 µM)	–
CC(=O)O[C@H]1C(=O)[C@@]2(C)[C@H]([C@H](OC(=O)c3ccccc3)[C@]3(O)C[C@H](OC(=O)[C@H](O)[C@@H](NC(=O)c4ccccc4)c4ccccc4)C(C)=C1C3(C)C)[C@]1(OC(C)=O)CO[C@@H]1C[C@@H]2O [PTX, paclitaxel, reference compound]	–	–	2.85 ± 0.43	–	–	3.96 ± 0.54	7.29 ± 0.91	–	5.75 ± 0.6	–	–	–	–
COc1cc(OC)c2c(O)cc(C(=O)NCc3ccc(C)cc3)cc2c1 [5b, 4-Hydroxy-5,7-dimethoxy-N-(4-methylbenzyl)-2-naphthamide]	64 (≈ 182 µM)	64 (≈ 182 µM)	6.75 ± 1.95	64 (≈ 182 µM)	32 (≈ 91.1 µM)	3.59 ± 1.04	28.4 ± 3.7	256 (≈ 729 µM)	8.38 ± 1.14	32 (≈ 91.1 µM)	32 (≈ 91.1 µM)	16 (≈ 45.5 µM)	IC50 (VEGFR-2): 0.623 ± 0.056 µM; inhibitory activity on VEGFR-2 relative to DHFR (VEGFR-2): 15–20 times; IC50 (DHFR): 9.09 ± 0.511 µM; MIC ([14]; Staphylococcus aureus, MRSA|MSSA, read-out: MIC against SE, SF, MSSA, and MRSA): 16 to 32 µg/mL (≈ 45.5 to 91.1 µM)
COc1cc(OC)c2cc(C(=O)NCc3ccc(Cl)cc3)cc(O)c2c1 [8a, N-(4-chlorobenzyl)-4-hydroxy-6,8-dimethoxy-2-naphthamide]	64 (≈ 172 µM)	64 (≈ 172 µM)	12.4 ± 1.34	64 (≈ 172 µM)	64 (≈ 172 µM)	8.61 ± 1.49	25.4 ± 3.02	256 (≈ 689 µM)	10.1 ± 1.17	128 (≈ 344 µM)	64 (≈ 172 µM)	32 (≈ 86.1 µM)	–
OC(Cn1cncn1)(Cn1cncn1)c1ccc(F)cc1F [Flu, fluconazole, reference compound]	4 (≈ 13.1 µM)	–	–	–	–	–	–	128 (≈ 418 µM)	–	–	–	–	MIC50, Candida species ([1]; Candida albicans, glabrata, krusei, tropicalis, ref [17]): 0.25 to 2.00 µg/mL; MIC50, drug-resistant fungi (drug-resistant fungi): > 16 µg/mL
COc1ccc(CNC(=O)c2cc(O)c3c(OC)cc(OC)cc3c2)cc1 [6b, 4-Hydroxy-5,7-dimethoxy-N-(4-methoxybenzyl)-2-naphthamide]	64 (≈ 174 µM)	64 (≈ 174 µM)	13.3 ± 2.69	128 (≈ 348 µM)	32 (≈ 87.1 µM)	12.3 ± 2.15	28.5 ± 3.29	256 (≈ 697 µM)	14 ± 1.4	32 (≈ 87.1 µM)	32 (≈ 87.1 µM)	32 (≈ 87.1 µM)	–
COc1cc(OC)c2cc(C(=O)NCCCN3CCOCC3)cc(O)c2c1 [4a, 4-Hydroxy-6,8-dimethoxy-N-(3-morpholinopropyl)-2-naphthamide]	128 (≈ 342 µM)	128 (≈ 342 µM)	16.1 ± 2.42	128 (≈ 342 µM)	64 (≈ 171 µM)	23.8 ± 2.93	52.2 ± 4.81	256 (≈ 684 µM)	14.5 ± 2.02	256 (≈ 684 µM)	128 (≈ 342 µM)	64 (≈ 171 µM)	–
